The values that follow come from ChEMBL document CHEMBL5214915 (Eur J Med Chem, 2021).

Data set [1] relates to Mycobacterium tuberculosis. Kind of data set: Antibacterial activity against Mycobacterium tuberculosis incubated for 1 to 2 weeks in 7H9/ADC/Tw medium. Type of data set: functional. Conditions: time 1-2 weeks.
For a further data set, the system named is Vero. In words: Cytotoxicity against African green monkey Vero cells measured after 72 hrs by tetrazolium-based colorimetric MTT assay. Type of data set: toxicity, cell-based. Conditions: chlorocebus sabaeus. (Formazan colour is commonly taken as a measure of viable cells.)
Data set [2] has as its system Mycobacterium tuberculosis. In words: Antibacterial activity against Mycobacterium tuberculosis incubated for 1 to 2 weeks in GastFe medium. Type of data set: functional. Conditions: time 1-2 weeks.
The subject of data set [3] is Mycobacterium tuberculosis. In words: Antibacterial activity against Mycobacterium tuberculosis incubated for 1 to 2 weeks in 7H9/DPPC/casitone/Tx medium. Type of data set: functional. Conditions: time 1-2 weeks.
Setting [4] is: Mycobacterium tuberculosis, read-out: MIC99.

Values after ≈ are worked out from the molar mass of the structure shown.

Consider `Nc1cccc(F)c1C(=O)O`, for which the MIC99 in data set [1] (setting [4]) amounted to 5 µM (≈ 0.776 µg/mL). In the data set on Vero, this molecule returned a CC50 of 0.074 mM.

Turning to `Nc1cccc(F)c1C(Nc1ccc(F)cc1)C(F)(F)F` (stereo not drawn), the MIC99 in data set [1] (setting [4]), in data set [2] (setting [4]) and in data set [3] (setting [4]) was 50 µM (≈ 15.1 µg/mL) each time.

Regarding `Nc1cccc(F)c1C(=O)NC1CCCCC1`, the MIC99 in data set [1] (setting [4]), in data set [2] (setting [4]) and in data set [3] (setting [4]) was above 50 µM in each case.

Consider `Cc1nnc(-c2c(N)cccc2F)o1`, for which the MIC99 in data set [1] (setting [4]), in data set [2] (setting [4]) and in data set [3] (setting [4]) was above 50 µM in each case.

As for `Nc1cccc(F)c1C(=O)NNCc1ccccc1`, the MIC99 is above 50 µM in data set [1] (setting [4]), above 50 µM in data set [2] (setting [4]) and 50 µM (≈ 13 µg/mL) in data set [3] (setting [4]).

Turning to `COc1ccc(NNC(=O)c2c(N)cccc2F)cc1`, the MIC99 worked out at 12.5 µM (≈ 3.44 µg/mL) in data set [1] (setting [4]), 0.78 µM (≈ 0.215 µg/mL) in data set [2] (setting [4]) and 1.56 µM (≈ 0.429 µg/mL) in data set [3] (setting [4]). The molecule further yielded a CC50 in the data set with Vero of 1.31 mM.

On to `Nc1cccc(F)c1C(=O)N1CCCC1`, for which the MIC99 in data set [1] (setting [4]), in data set [2] (setting [4]) and in data set [3] (setting [4]) was above 50 µM throughout.

On to `Nc1cccc(F)c1C(=O)NNc1ccc(Cl)cc1`, for which the figures for the MIC99 in data set [1] (setting [4]), in data set [2] (setting [4]) and in data set [3] (setting [4]) were 12.6 µM (≈ 3.51 µg/mL), 3.12 µM (≈ 0.874 µg/mL) and 1.56 µM (≈ 0.436 µg/mL), respectively. The same molecule returned a CC50 with Vero of 0.373 mM.

Take `NC(=O)c1c(N)cccc1F`: the MIC99 in data set [1] (setting [4]), in data set [2] (setting [4]) and in data set [3] (setting [4]) was above 50 µM each time.

For the molecule `Nc1cccc(F)c1C(=O)NNc1ccccc1`, the values for the MIC99 in data set [1] and in data set [3] (setting [4]) were 12.5 µM (≈ 3.07 µg/mL) and 1.56 µM (≈ 0.383 µg/mL), respectively. For the same molecule, the midpoint of cytotoxicity in the data set on Vero, the CC50, lay at 2.03 mM.

Take `Nc1cccc(F)c1C(=O)NC1CC1`: the MIC99 in data set [1] (setting [4]), in data set [2] (setting [4]) and in data set [3] (setting [4]) was above 50 µM in each case.

With `Nc1cccc(F)c1C(=O)NNc1cc(Cl)ccc1Cl`, the MIC99 is above 50 µM in data set [1] (setting [4]), 25 µM (≈ 7.85 µg/mL) in data set [2] (setting [4]) and 6.25 µM (≈ 1.96 µg/mL) in data set [3] (setting [4]). The cytotoxic concentration (CC50) in the data set with Vero is above 1.8 mM.

With `Nc1cccc(F)c1C(N1CCSCC1)C(F)(F)F` (stereo not drawn), the MIC99 in data set [1] (setting [4]), in data set [2] (setting [4]) and in data set [3] (setting [4]) was 50 µM (≈ 14.7 µg/mL) each time.

With `Nc1cccc(F)c1C(=O)NC1CCC1`, the MIC99 in data set [1] (setting [4]), in data set [2] (setting [4]) and in data set [3] (setting [4]) was above 50 µM in each case.

In the case of `CC(C)NC(=O)c1c(N)cccc1F`, the MIC99 in data set [1] (setting [4]), in data set [2] (setting [4]) and in data set [3] (setting [4]) was above 50 µM throughout.

For the molecule `Nc1cccc(F)c1C(=O)NNc1ccc(Cl)c(Cl)c1`, the MIC99 in data set [1] (setting [4]) was found to be 25 µM (≈ 7.85 µg/mL); in data set [2] (setting [4]), 12.5 µM (≈ 3.93 µg/mL); in data set [3] (setting [4]), 1.56 µM (≈ 0.49 µg/mL). The same molecule yielded a CC50 in the data set on Vero above 1.8 mM.

As for `CC(C)(C)OC(=O)NNC(=O)c1c(N)cccc1F`, the MIC99 in data set [1] (setting [4]), in data set [2] (setting [4]) and in data set [3] (setting [4]) was above 50 µM each time.

For the molecule `Nc1cccc(F)c1C(=O)NNc1ccc(C(F)(F)F)cc1`, the MIC99 in data set [1] (setting [4]) worked out at 45.5 µM (≈ 14.2 µg/mL); in data set [2] (setting [4]) it was 11.4 µM (≈ 3.56 µg/mL); in data set [3] (setting [4]), 2.84 µM (≈ 0.89 µg/mL). The same molecule yielded a CC50 in the data set on Vero of 1.36 mM.

As for `Nc1cccc(F)c1C(=O)N1CCCCC1`, the MIC99 in data set [1] (setting [4]), in data set [2] (setting [4]) and in data set [3] (setting [4]) was above 50 µM each time.

In the data set on Vero, `Cl.Nc1cccc(F)c1C(=O)NNc1ccc(F)cc1` yielded a CC50 above 1.8 mM. Besides, the MIC99 in data set [2] and in data set [3] was 1.4 µM throughout.

Take `Nc1cccc(F)c1C(=O)NNc1cccc(Cl)c1`: the MIC99 amounted to 25 µM (≈ 6.99 µg/mL) in data set [1] (setting [4]), 6.25 µM (≈ 1.75 µg/mL) in data set [2] (setting [4]) and 1.56 µM (≈ 0.436 µg/mL) in data set [3] (setting [4]). Besides, the CC50 in the data set on Vero is above 1.8 mM.

Regarding `Nc1cccc(F)c1C(=O)NNc1ccccc1Cl`, the MIC99 in data set [1] (setting [4]) turned out to be 25 µM (≈ 6.99 µg/mL); in data set [2] (setting [4]) it was 3.12 µM (≈ 0.874 µg/mL); in data set [3] (setting [4]) it was 3.12 µM (≈ 0.874 µg/mL). Half-maximal cytotoxicity with Vero (CC50) was put at 0.792 mM.

Turning to `Nc1cccc(F)c1C(=O)NO`, the MIC99 in data set [1] (setting [4]), in data set [2] (setting [4]) and in data set [3] (setting [4]) was above 50 µM throughout.

With `Nc1cccc(F)c1C(=O)NNc1cc(Cl)cc(Cl)c1`, the MIC99 in data set [1] (setting [4]) was above 50 µM; in data set [2] (setting [4]) it was 25 µM (≈ 7.85 µg/mL); in data set [3] (setting [4]) it was 6.25 µM (≈ 1.96 µg/mL).

In the case of `Nc1cccc(F)c1C(N1CCOCC1)C(F)(F)F` (stereo not drawn), the MIC99 in data set [1] (setting [4]), in data set [2] (setting [4]) and in data set [3] (setting [4]) was 50 µM (≈ 13.9 µg/mL) in each case.

For `Nc1cccc(F)c1C(=O)NNc1ccc([N+](=O)[O-])cc1[N+](=O)[O-]`, the MIC99 in data set [1] (setting [4]), in data set [2] (setting [4]) and in data set [3] (setting [4]) was above 50 µM each time.

As to `Nc1cccc(F)c1C(=O)NNC1CCCCC1`, the MIC99 in data set [1] (setting [4]) was determined as 9.4 µM (≈ 2.36 µg/mL); in data set [2] (setting [4]), 50 µM (≈ 12.6 µg/mL); in data set [3] (setting [4]), 9.4 µM (≈ 2.36 µg/mL). For the same molecule, in the data set on Vero, the CC50 came out at 0.909 mM.

`Cc1nc(-c2c(N)cccc2F)no1`: the MIC99 in data set [1] (setting [4]), in data set [2] (setting [4]) and in data set [3] (setting [4]) was above 50 µM each time.

Take `CONC(=O)c1c(N)cccc1F`: the MIC99 in data set [1] (setting [4]), in data set [2] (setting [4]) and in data set [3] (setting [4]) was above 50 µM each time.

As for `Nc1cccc(F)c1C(=O)Nc1ccc(F)cc1`, the MIC99 in data set [1] (setting [4]), in data set [2] (setting [4]) and in data set [3] (setting [4]) was above 50 µM in each case.

Take `Nc1cccc(F)c1C(=O)NNc1ccc(F)cc1`: the MIC99 in data set [1] is 9.4 µM (≈ 2.47 µg/mL); in data set [2] (setting [4]), 2.3 µM (≈ 0.605 µg/mL); in data set [3] (setting [4]), 1.56 µM (≈ 0.411 µg/mL). In the data set on Vero, this molecule came in with a CC50 of 1.36 mM.

For `Nc1cccc(F)c1C(=O)NNc1cccc(Cl)c1Cl`, the figures for the MIC99 in data set [1] (setting [4]), in data set [2] (setting [4]) and in data set [3] (setting [4]) were 50 µM (≈ 15.7 µg/mL), 12.5 µM (≈ 3.93 µg/mL) and 6.25 µM (≈ 1.96 µg/mL), respectively. The half-maximal cytotoxic concentration (CC50) in the data set on Vero is above 1.8 mM.

In the case of `Nc1cccc(F)c1C(=O)NNc1cccc(F)c1`, the MIC99 in data set [1] (setting [4]) is 12.5 µM (≈ 3.29 µg/mL); in data set [2] (setting [4]), 6.25 µM (≈ 1.65 µg/mL); in data set [3] (setting [4]) it was 1.56 µM (≈ 0.411 µg/mL). In the data set with Vero, this molecule showed a CC50 of 1.36 mM.

For `Nc1cccc(F)c1C(=O)NNc1ccccc1[N+](=O)[O-]`, the MIC99 in data set [1] (setting [4]) was above 50 µM; in data set [2] (setting [4]), above 50 µM; in data set [3] (setting [4]) it was 50 µM (≈ 14.5 µg/mL).

As to `Nc1cccc(F)c1C(=O)N1CCOCC1`, the MIC99 in data set [1] (setting [4]), in data set [2] (setting [4]) and in data set [3] (setting [4]) was above 50 µM throughout.

Consider `Cl.Nc1cccc(F)c1C(=O)NNc1ccccc1`, for which the cytotoxic concentration (CC50) in the data set on Vero was above 1.8 mM. Moreover, the MIC99 in data set [2] turned out to be 2.3 µM; in data set [3], 1.3 µM.

As for `Nc1cccc(F)c1C(=O)NNc1c(Cl)cc(Cl)cc1Cl`, the MIC99 in data set [1] (setting [4]) is 5 µM (≈ 1.74 µg/mL); in data set [2] (setting [4]), 1.25 µM (≈ 0.436 µg/mL); in data set [3] (setting [4]), 0.625 µM (≈ 0.218 µg/mL). Besides, in the data set with Vero, the CC50 is above 1.8 mM.

For `NNC(=O)c1c(N)cccc1F`, the MIC99 in data set [1] (setting [4]), in data set [2] (setting [4]) and in data set [3] (setting [4]) was above 50 µM in each case.

On to `Nc1cccc(F)c1-c1nnn[nH]1`, for which the MIC99 in data set [1] (setting [4]), in data set [2] (setting [4]) and in data set [3] (setting [4]) was above 50 µM each time.

Consider `Nc1cccc(F)c1C(=O)NCCO`, for which the MIC99 in data set [1] (setting [4]), in data set [2] (setting [4]) and in data set [3] (setting [4]) was above 50 µM throughout.

For `CN1CCN(C(=O)c2c(N)cccc2F)CC1`, the MIC99 in data set [1] (setting [4]), in data set [2] (setting [4]) and in data set [3] (setting [4]) was above 50 µM throughout.

In the case of `Nc1cccc(F)c1C(=O)NNc1cccc([N+](=O)[O-])c1`, the MIC99 is above 50 µM in data set [1] (setting [4]), 25 µM (≈ 7.26 µg/mL) in data set [2] (setting [4]) and 6.25 µM (≈ 1.81 µg/mL) in data set [3] (setting [4]). In addition, in the data set with Vero, the CC50 was 1.3 mM.

As to `Nc1cccc(F)c1C(=O)NNc1ccc(Cl)cc1Cl`, the MIC99 in data set [1] (setting [4]) was found to be 50 µM (≈ 15.7 µg/mL); in data set [2] (setting [4]), 6.25 µM (≈ 1.96 µg/mL); in data set [3] (setting [4]) it was 3.12 µM (≈ 0.982 µg/mL). Moreover, in the data set with Vero, the midpoint of cytotoxicity, the CC50, lay at 1.04 mM.

As to `NNC(=O)c1ccncc1` [ISONIAZID], the MIC99 in data set [3] (setting [4]) is 0.1 µM (≈ 0.0137 µg/mL).

A word on the MIC99: it is an inhibitory concentration at the 99% level, which refers to growth in some studies and to a panel of isolates in others. By CC50 is commonly meant the concentration giving 50% cytotoxicity.
